Assay results from patent US20250382619A1, “CANCER THERAPY WITH TGF-BETA-2 AND IRINOTECAN AGENTS” (GMP BIOTECHNOLOGY LIMITED, priority 2023, published 2025).
Values joined by “and” are separate entries in the source; they are usually repeats but may differ in a detail not shown here. Identical values can stand only once. In the oligonucleotide strings, read from the 5' end, every base follows the letter of its sugar. An asterisk marks phosphorothioate; unmarked linkages are phosphodiester. Other units and linkages are bracketed, terminal groups are in braces. A string of capitals states the bases alone. d = 2'-deoxy (DNA)

Experiments:
pancreatic cancer [1] = assay: Clinical study of overall survival, pancreatic cancer patients treated with irinotecan, by TGF-β2 expression (Example 5, two cohorts); assay type: in vivo, human; details: for Improvement in overall survival (OS) with reduced TGF-β2 expression in patients treated with the agent: pancreatic cancer patients selected by treatment; for Synergy in combination with reduced TGF-β2 expression: overall survival, pancreatic cancer patients; for Median Months Overall (95% CI): irinotecan-treated patients
Description: The study of FIG. 5 used Quartiles of TGFB2 from mRNA expression z-scores relative to all samples (log RNA Seq V2 RSEM).

pancreatic cancer [2] = assay: Clinical study of overall survival, pancreatic cancer patients treated with irinotecan, by TGF-β2 expression quartiles (Example 6); assay type: in vivo, human; details: TGFB2 quartile (D) 0.61-2.64, high TGF-β2 expression
Experimental: Kaplan-Meier Plotter was used to calculate patient survival to determine the connection between improved overall survival in pancreatic cancer and reduced TGF-β2 expression when patients were also treated with irinotecan. The study of FIG. 6 used Quartiles of TGFB2 from mRNA expression z-scores relative to all samples (log RNA Seq V2 RSEM).

Compound | Improvement in overall survival (OS) with reduced TGF-β2 expression in patients treated with the agent (pancreatic cancer [1]) | Synergy in combination with reduced TGF-β2 expression (pancreatic cancer [1]) | other results
O=C1[O][Pt]2([NH][C@@H]3CCCC[C@H]3[NH]2)[O]C1=O [oxaliplatin] | not observed |  | 
Nc1nc2c(c(=O)[nH]1)N(C=O)C(CNc1ccc(C(=O)N[C@@H](CCC(=O)O)C(=O)O)cc1)CN2 (some centres unmarked) [leucovorin] | not observed | none of oxaliplatin, leucovorin, and fluorouracil showed significant synergy | 
CCc1c2c(nc3ccc(OC(=O)N4CCC(N5CCCCC5)CC4)cc13)-c1cc3c(c(=O)n1C2)COC(=O)[C@]3(O)CC [irinotecan] | showed improvement in overall survival |  | Median Months Overall (95% CI) (pancreatic cancer [2]): 8 months and 8.22 (6.02-NA) months; Median Months Overall (95% CI) (pancreatic cancer [1]; TGFB2 cohort (A) −1.75-0.17, low TGF-β2 expression): >>34 months; Median Months Overall (95% CI) (pancreatic cancer [1]; TGFB2 cohort (B) 0.33-2.64, high TGF-β2 expression): 23 months and 23.08 (8.22-NA) months
Nc1ccn([C@@H]2O[C@H](CO)[C@@H](O)C2(F)F)c(=O)n1 [gemcitabine] | not observed |  | 
Trabedersen: synthetic 18-mer phosphorothioate oligodeoxynucleotide complementary to human TGF-β2 mRNA, CGGCATGTCT ATTTTGTA (antisense dC*dG*dG*dC*dA*dT*dG*dT*dC*dT*dA*dT*dT*dT*dT*dG*dT*dA) |  |  | pH of solution: 6-8
O=c1[nH]cc(F)c(=O)[nH]1 [fluorouracil] | not observed | none of oxaliplatin, leucovorin, and fluorouracil showed significant synergy | 
